# Patent US20090304744A1, “METHODS OF ENHANCING IMMUNE RESPONSE IN THE INTRADERMAL COMPARTMENT AND COMPOUNDS USEFUL THEREOF” (priority 2003, published 2009)
# Like-named read-outs stand apart in the source and are kept apart here.
# Tests used:
# [1] = system: swine skin; conditions: for tolerated amphotericin per dose / tolerated total amphotericin per dose: Draize score 1 hour post administration; for Erythema Draize scores (tolerability): Tween 80 5%, Deoxycholate 0.1%, D-sorbitol 5%, Lutrol 15%, without antigen, 200 ul per injection, 31 gauge 1.5 mm, 1 h and 24 h readings
# [2] = system: influenza antigen (Influenza APR834); assay type: in vivo, Balb/c mice; conditions: for Trend in immune response as indicated by ELISA signal (1:123 serum screening dilution): mice
# [3] = system: guinea pig skin; experiment: Guinea pig erythema Draize scoring after ID delivery of excipients; assay type: in vivo, Hartley guinea pigs; conditions: Tween 80 5%, Deoxycholate 0.1%, D-sorbitol 5%, Lutrol 15%; without antigen, 50 ul per injection, 34 gauge 1.0 mm; immediate, 1 h and 24 h readings
# Source text: The methods of the invention provide fundamental principles and guidelines whereby optimum parameters may be determined for delivering immunogenic compositions to the dermal compartment (including epidermal and intradermal compartments) wherein the excipients have optimum adjuvant properties and the formulations of the invention have enhanced efficacy in comparison to when the same formulation is delivered using conventional modes of delivery, including intramuscular and subcutaneous delivery. The invention provides methods wherein the formulations of the invention have been screened to have optimum concentration ranges for delivery to the optimum depth of the intradermal compartment such that they have adjuvant properties, resulting in one or more of the following properties: minimal to no skin irritation as determined and assessed using conventional modes of analysis of skin reactions using visual methods such as Draize scoring (For a typical draize scoring analysis see table below); minimal to no hemolysis as determined using standard methods known in the art, and enhanced immune response as measured by enhanced seroconversion and/or enhanced antibody titers.
# Erythema Draize scores for various excipients were determined using procedures described in Section 5.4, above. In one study, Tween™ 80 (5%), Deoxycholate (0.1%), D-sorbitol (5%) or Lutrol™ (15%) was administered (50 μl per injection) without the antigen to Hartley guinea pigs using 34 gauge, 1.0 mm needles. […] Deeper administrations will be necessary for deoycholate to be used reliably at this concentration. From left to right, the reading immediately after administration, the one-hour reading and the 24-hour reading.
# [4] = system: trivalent test antigen (New Calcdonia, Panama and B-Hong Kong); design: species or system Hartley Guinea Pigs; conditions: guinea pig, in vivo
# [5] = Yorkshire swine, 1.5 mm depth, listed as Amp-B
compound,measurement,setting,value
"C[C@@H]1[C@H](O)[C@@H](C)/C=C/C=C/C=C/C=C/C=C/C=C/C=C/[C@H](O[C@@H]2O[C@H](C)[C@@H](O)[C@H](N)[C@@H]2O)C[C@@H]2O[C@](O)(C[C@@H](O)C[C@@H](O)[C@H](O)CC[C@@H](O)C[C@@H](O)CC(=O)O[C@H]1C)C[C@H](O)[C@H]2C(=O)O [Amphotericin B, reference compound]",tolerated amphotericin per dose,"[1]; Yorkshire swine, 1.5 mm depth",up to 600 ng/100 ul
same,tolerated total amphotericin per dose,"[1]; Yorkshire swine, 1.5 mm depth",≤ 1200 ng/200 ul
same,tolerated amphotericin per dose,[1]; [5],600 ng/100 ul
same,tolerated total amphotericin per dose,[1]; [5],1200 ng/200 ul
same,tolerability by Draize score analysis,"[1]; alone and as a mixture with FLUZONE vaccine, 1.5 mm depth, Yorkshire swine",well tolerated
same,Trend in immune response as indicated by ELISA signal (1:123 serum screening dilution),"[2]; excipient 20 ng/ml with FLUZONE, ID",0.975
same,Trend in immune response as indicated by ELISA signal (1:123 serum screening dilution),"[2]; excipient 60 ng/ml with FLUZONE, ID",1.575
same,Trend in immune response as indicated by ELISA signal (1:123 serum screening dilution),"[2]; excipient 180 ng/ml with FLUZONE, ID",1.018
OC[C@@H](O)[C@@H](O)[C@H](O)[C@@H](O)CO [D-sorbitol],Erythema Draize scores (tolerability),[3],reasonably well-tolerated
same,erythema,"[1]; 10% W/V, 1-2 mm depth, 20-24 hours post administration, Yorkshire swine",mild erythema
same,tolerability,"[1]; 10%, delivered to 1-2 mm depth, Yorkshire swine",well tolerated
same,Erythema Draize scores (tolerability),[1],reasonably well-tolerated
same,serum titer enhancement vs equal amount of Fluzone without sorbitol,"[2]; Fluzone supplemented with sorbitol, ID, six point ELISA",3 ×
same,Trend in immune response as indicated by ELISA signal (1:123 serum screening dilution),"[2]; excipient 2% w/v with FLUZONE, ID",1.062
same,Trend in immune response as indicated by ELISA signal (1:123 serum screening dilution),"[2]; excipient 10% w/v with FLUZONE, ID",1.102
same,Trend in immune response as indicated by ELISA signal (1:123 serum screening dilution),"[2]; excipient 58% w/v with FLUZONE, ID",1.58
"C[C@H](CCC(=O)[O-])[C@H]1CC[C@H]2[C@@H]3CC[C@@H]4C[C@H](O)CC[C@]4(C)[C@H]3C[C@H](O)[C@]12C.[Na+] [Deoxycholate, sodium deoxycholate]",Erythema Draize scores (tolerability),[3],just above the acceptable draize score
same,Erythema Draize scores (tolerability),[1],just above the acceptable draize score
same,skin compatibility,"[1]; deoxycholate 0.05 and 0.1% +/- trivalent vaccine, 1.5 mm depth, Yorkshire swine",performed well
same,skin compatibility,"[1]; deoxycholate 0.5% W/V and higher, 1.5 mm depth",could not be tolerated
same,animals seroconverted 21 days after immunization,"[2]; DOC-supplemented (0.1% sodium deoxycholate) FLUZONE, ID, Balb/c mice",5 of 5
same,median titer,"[2]; ID formulation containing 0.1% sodium deoxycholate vs IM and ID without, Balb/c mice",best median titer
same,hemagglutin specific titer vs FLUZONE alone ID and FLUZONE alone IM,[4],outperformed
CCO [Ethanol],Trend in immune response as indicated by ELISA signal (1:123 serum screening dilution),"[2]; excipient 0.05% v/v with FLUZONE, ID",0.901
same,Trend in immune response as indicated by ELISA signal (1:123 serum screening dilution),"[2]; excipient 0.15% v/v with FLUZONE, ID",2.742
same,Trend in immune response as indicated by ELISA signal (1:123 serum screening dilution),"[2]; excipient 0.45% v/v with FLUZONE, ID",1.530
O=S([O-])O.[Na+] [Sodium Bisulfite],Trend in immune response as indicated by ELISA signal (1:123 serum screening dilution),"[2]; excipient 0.3% w/v with FLUZONE, ID",0.808
same,Trend in immune response as indicated by ELISA signal (1:123 serum screening dilution),"[2]; excipient 0.9% w/v with FLUZONE, ID",1.833
same,Trend in immune response as indicated by ELISA signal (1:123 serum screening dilution),"[2]; excipient 2.7% w/v with FLUZONE, ID",2.048
NC(N)=O [Urea],Trend in immune response as indicated by ELISA signal (1:123 serum screening dilution),"[2]; excipient 1% w/v with FLUZONE, ID",0.979
same,Trend in immune response as indicated by ELISA signal (1:123 serum screening dilution),"[2]; excipient 5% w/v with FLUZONE, ID",1.585
same,Trend in immune response as indicated by ELISA signal (1:123 serum screening dilution),"[2]; excipient 20% w/v with FLUZONE, ID",1.555
Triton X-100,Trend in immune response as indicated by ELISA signal (1:123 serum screening dilution),"[2]; excipient 0.0001% w/v with FLUZONE, ID",1.321
same,Trend in immune response as indicated by ELISA signal (1:123 serum screening dilution),"[2]; excipient 0.0009% w/v with FLUZONE, ID",1.214
oxtoxynol 9 [Triton N-101],Trend in immune response as indicated by ELISA signal (1:123 serum screening dilution),"[2]; excipient 0.13% w/v with FLUZONE, ID",0.805
same,Trend in immune response as indicated by ELISA signal (1:123 serum screening dilution),"[2]; excipient 1.3% w/v with FLUZONE, ID",2.035
